This is an account of results in patent US20250051344A1, “BIFUNCTIONAL SELECTIVE DEGRADERS OF SMARCA2 AND THERAPEUTIC USES THEREOF” (Nurix Therapeutics, Inc., priority 2023, published 2025).

The target of one assay is T1, SMARCA2 (Homo sapiens, UniProt P51531).
T1 construct: endogenous in cells
The assay is described as follows: SMARCA2 Cellular Degradation Assay (Western blot analysis on Jess platform). It is filed as cell-based. Particulars: for DC50 / Dmax: cellular degradation; for Fold Selectivity SMARCA4/2: ratio DC50 SMARCA4 / DC50 SMARCA2. An outline of the steps: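 SMARCA2 remaining is given as percent of vehicle control, using actin-normalized, background-corrected electropherogram areas. Measurement was by Jess capillary immunoassay (anti-SMARCA2 with anti-β-actin) on 5 μg protein from RIPA/SDS lysates of tumor-derived cells.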

For another assay, the target named is T2, SMARCA4 (Homo sapiens, UniProt P51532).
T2 construct: endogenous in cells
T2 sequence (P51532 whole entry, species assumed): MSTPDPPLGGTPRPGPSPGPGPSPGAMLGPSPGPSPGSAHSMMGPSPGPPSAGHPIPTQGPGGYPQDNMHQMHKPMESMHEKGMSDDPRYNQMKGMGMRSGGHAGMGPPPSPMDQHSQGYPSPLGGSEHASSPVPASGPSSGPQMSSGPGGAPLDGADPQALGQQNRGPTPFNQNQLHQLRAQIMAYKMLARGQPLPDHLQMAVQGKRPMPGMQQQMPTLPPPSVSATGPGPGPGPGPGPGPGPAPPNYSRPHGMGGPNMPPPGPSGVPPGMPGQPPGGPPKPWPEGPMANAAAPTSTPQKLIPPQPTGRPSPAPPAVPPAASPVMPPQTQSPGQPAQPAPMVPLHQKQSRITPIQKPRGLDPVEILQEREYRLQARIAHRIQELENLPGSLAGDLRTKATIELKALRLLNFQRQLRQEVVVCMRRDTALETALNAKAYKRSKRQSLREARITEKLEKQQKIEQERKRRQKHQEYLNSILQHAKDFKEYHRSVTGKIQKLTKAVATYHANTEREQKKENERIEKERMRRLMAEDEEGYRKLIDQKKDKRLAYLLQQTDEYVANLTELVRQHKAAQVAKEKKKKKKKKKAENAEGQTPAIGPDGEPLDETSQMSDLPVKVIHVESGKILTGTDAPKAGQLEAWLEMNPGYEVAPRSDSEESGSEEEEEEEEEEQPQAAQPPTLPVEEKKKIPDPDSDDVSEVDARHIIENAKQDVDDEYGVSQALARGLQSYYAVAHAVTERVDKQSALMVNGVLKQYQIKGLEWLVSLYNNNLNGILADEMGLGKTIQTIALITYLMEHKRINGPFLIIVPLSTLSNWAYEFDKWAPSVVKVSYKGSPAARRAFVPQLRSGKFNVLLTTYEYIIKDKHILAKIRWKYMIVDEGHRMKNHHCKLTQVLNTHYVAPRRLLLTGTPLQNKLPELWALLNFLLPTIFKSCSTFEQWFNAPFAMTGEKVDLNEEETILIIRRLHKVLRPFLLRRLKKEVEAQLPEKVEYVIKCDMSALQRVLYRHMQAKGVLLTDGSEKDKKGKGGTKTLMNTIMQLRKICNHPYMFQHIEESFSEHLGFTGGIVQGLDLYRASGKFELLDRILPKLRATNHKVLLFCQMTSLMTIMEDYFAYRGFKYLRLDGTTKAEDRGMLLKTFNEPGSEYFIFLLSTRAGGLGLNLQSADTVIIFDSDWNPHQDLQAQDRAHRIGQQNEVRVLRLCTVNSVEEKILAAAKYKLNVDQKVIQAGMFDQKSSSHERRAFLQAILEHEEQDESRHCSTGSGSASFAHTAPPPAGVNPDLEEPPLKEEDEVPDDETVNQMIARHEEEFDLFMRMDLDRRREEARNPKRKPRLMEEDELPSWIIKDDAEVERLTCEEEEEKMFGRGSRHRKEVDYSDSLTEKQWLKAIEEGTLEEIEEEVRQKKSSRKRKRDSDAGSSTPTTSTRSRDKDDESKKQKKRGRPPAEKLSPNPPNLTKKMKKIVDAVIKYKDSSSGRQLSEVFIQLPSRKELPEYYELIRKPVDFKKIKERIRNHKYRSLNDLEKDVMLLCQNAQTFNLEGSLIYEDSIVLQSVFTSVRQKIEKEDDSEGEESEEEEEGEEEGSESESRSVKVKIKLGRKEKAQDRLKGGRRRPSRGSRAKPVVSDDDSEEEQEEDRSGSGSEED
Description: Cellular degradation assay, SMARCA4 (Table 1). It is filed as cell-based.

SMILES strings stand for the structures.

Broadly, the DC50 is the midpoint of the concentration-degradation curve. A low value points to degradation at low concentration. Usually Dmax stands for the greatest extent of degradation seen. A higher Dmax goes with deep degradation.

T1 sequence (P51531 whole entry, species assumed): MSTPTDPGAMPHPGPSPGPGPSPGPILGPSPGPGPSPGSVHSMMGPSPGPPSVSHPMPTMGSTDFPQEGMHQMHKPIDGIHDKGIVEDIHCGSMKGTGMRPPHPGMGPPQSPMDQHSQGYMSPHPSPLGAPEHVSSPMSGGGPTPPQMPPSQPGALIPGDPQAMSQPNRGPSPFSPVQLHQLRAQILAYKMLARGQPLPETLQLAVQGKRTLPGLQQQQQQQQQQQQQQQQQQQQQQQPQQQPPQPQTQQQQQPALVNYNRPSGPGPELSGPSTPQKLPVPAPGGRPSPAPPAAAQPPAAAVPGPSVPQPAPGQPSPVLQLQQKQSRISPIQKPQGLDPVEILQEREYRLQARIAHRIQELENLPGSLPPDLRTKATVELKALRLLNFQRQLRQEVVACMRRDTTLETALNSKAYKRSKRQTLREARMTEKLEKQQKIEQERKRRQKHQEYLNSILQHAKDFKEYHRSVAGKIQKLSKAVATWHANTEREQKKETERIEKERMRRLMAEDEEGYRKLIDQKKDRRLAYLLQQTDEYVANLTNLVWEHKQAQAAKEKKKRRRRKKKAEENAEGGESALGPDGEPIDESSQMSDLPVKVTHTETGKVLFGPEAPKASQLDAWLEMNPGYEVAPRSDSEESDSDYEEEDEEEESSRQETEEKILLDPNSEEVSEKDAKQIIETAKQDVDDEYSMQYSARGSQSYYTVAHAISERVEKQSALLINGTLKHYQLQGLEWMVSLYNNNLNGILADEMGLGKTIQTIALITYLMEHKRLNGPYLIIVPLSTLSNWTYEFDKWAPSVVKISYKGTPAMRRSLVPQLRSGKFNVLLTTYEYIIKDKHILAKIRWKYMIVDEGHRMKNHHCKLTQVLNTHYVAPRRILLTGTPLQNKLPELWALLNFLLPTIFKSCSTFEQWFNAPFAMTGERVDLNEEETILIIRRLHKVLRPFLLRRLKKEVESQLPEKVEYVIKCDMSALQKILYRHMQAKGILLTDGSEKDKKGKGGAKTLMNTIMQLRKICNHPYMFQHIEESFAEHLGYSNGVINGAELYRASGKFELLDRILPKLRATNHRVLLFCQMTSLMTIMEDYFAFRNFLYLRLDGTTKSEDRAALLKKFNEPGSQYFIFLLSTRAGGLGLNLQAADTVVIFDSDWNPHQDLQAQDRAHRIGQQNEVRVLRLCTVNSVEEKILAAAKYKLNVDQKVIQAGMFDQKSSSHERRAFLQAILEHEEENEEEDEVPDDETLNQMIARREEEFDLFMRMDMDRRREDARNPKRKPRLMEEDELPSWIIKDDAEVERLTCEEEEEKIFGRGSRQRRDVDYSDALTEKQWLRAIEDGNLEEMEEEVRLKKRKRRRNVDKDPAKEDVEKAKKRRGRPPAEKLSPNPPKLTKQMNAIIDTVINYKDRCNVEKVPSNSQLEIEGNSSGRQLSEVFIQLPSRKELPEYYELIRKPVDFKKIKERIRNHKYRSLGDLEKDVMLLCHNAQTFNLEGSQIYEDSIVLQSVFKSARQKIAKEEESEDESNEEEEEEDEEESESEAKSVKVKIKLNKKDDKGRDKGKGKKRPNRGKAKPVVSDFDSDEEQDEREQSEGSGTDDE

Take `O=C1CCC(Nc2ccc(C3CCN(CCNC(=O)C4(c5ccccc5)CCN(c5cnnc(-c6ccccc6O)c5)CC4)CC3)cc2)C(=O)N1` (racemic) [Example 170, rac-N-{2-[4-(4-{[(3R)-2,6-dioxopiperidin-3-yl]amino}phenyl)piperidin-1-yl]ethyl}-1-[6-(2-hydroxyphenyl)pyridazin-4-yl]-4-phenylpiperidine-4-carboxamide]: on SMARCA2, the DC50 was 38.3 nM, the Dmax was determined as 59.2% and the “Fold Selectivity SMARCA4/2” value came to 261. On SMARCA4, this compound returned a Dmax of 48.5%.
`CC(C)c1cc(C2(C(=O)N(C)C3CCN(CC4CCN(c5ccc(C6CCC(=O)NC6=O)cc5)CC4)CC3)CCN(c3cnnc(-c4ccccc4O)c3)CC2)no1` (racemic) [Example 98, rac-N-{1-[(1-{4-[(3R)-2,6-dioxopiperidin-3-yl]phenyl}piperidin-4-yl)methyl]piperidin-4-yl}-1-[6-(2-hydroxyphenyl)pyridazin-4-yl]-N-methyl-4-[5-(propan-2-yl)-1,2-oxazol-3-yl]piperidine-4-carboxamide]: on SMARCA2, half-maximal degradation (DC50) was put at 5.55 nM, the maximal degradation (Dmax) turned out to be 86.7% and the “Fold Selectivity SMARCA4/2” value is recorded as 10. At SMARCA4, this compound showed a DC50 of 57.9 nM and a maximal degradation (Dmax) of 58.1%.
The like results for `C[C@@H](C1CCN(c2ccc([C@H]3CCC(=O)NC3=O)cn2)CC1)N1CC2(CN(C(=O)C3(c4ccccc4)CCN(c4cnnc(-c5ccccc5O)c4)CC3)C2)C1` (racemic) [Example 141, (3RS&)-3-(6-{4-[(1RS)-1-(6-{1-[6-(2-hydroxyphenyl)pyridazin-4-yl]-4-phenylpiperidine-4-carbonyl}-2,6-diazaspiro[3.3]heptan-2-yl)ethyl]piperidin-1-yl}pyridin-3-yl)piperidine-2,6-dione] were, in that order, 6.59 nM, 87%, 5, 34.9 nM and 71.5%.
As for `CN(C(=O)C1(c2ccncc2)CCN(c2cnnc(-c3ccccc3O)c2)CC1)C1CCN(CCC2CCN(c3ccc(C4CCC(=O)NC4=O)c(F)c3)CC2)CC1` (racemic) [Example 75, rac-N-{1-[2-(1-{4-[(3R)-2,6-dioxopiperidin-3-yl]-3-fluorophenyl}piperidin-4-yl)ethyl]piperidin-4-yl}-1-[6-(2-hydroxyphenyl)pyridazin-4-yl]-n-methyl-4-(pyridin-4-yl)piperidine-4-carboxamide], on SMARCA2, it took 2.18 nM to reach half-maximal degradation (DC50), the Dmax was 90% and the “Fold Selectivity SMARCA4/2” value worked out at 4587. On SMARCA4, the Dmax amounted to 35.3%.
The like results for `CN(C(=O)C1(OC2CC2)CCN(c2cnnc(-c3ccccc3O)c2)CC1)C1CCN(CCC2CCN(c3ccc(C4CCC(=O)NC4=O)cc3)CC2)CC1` (racemic) [Example 124, rac-4-cyclopropoxy-N-{1-[2-(1-{4-[(3r)-2,6-dioxopiperidin-3-yl]phenyl}piperidin-4-yl)ethyl]piperidin-4-yl}-1-[6-(2-hydroxyphenyl)pyridazin-4-yl]-N-methylpiperidine-4-carboxamide] were, in that order, 11.3 nM, 75.9%, 882 and 25.1%.
As for `O=C1CCC(c2ccc(N3CC[C@H](CCN4CC5(C4)CN(C(=O)C4(c6ccccc6)CCN(c6cnnc(-c7ccccc7O)c6)CC4)C5)C3)nc2)C(=O)N1` (mixture of isomers) [Example 181, (3RS)-3-{6-[(3S)-3-[2-(6-{1-[6-(2-hydroxyphenyl)pyridazin-4-yl]-4-phenylpiperidine-4-carbonyl}-2,6-diazaspiro[3.3]heptan-2-yl)ethyl]pyrrolidin-1-yl]pyridin-3-yl}piperidine-2,6-dione], on SMARCA2, half-maximal degradation (DC50) was put at 19.6 nM, the Dmax came out at 72.3% and the “Fold Selectivity SMARCA4/2” value amounted to 16. On SMARCA4, this compound gave a DC50 of 317 nM and a Dmax of 42.3%.
Consider `CN(C(=O)C1(c2cnn(C)c2)CCN(c2cnnc(-c3ccccc3O)c2)CC1)C1CCN(CCC2CCN(c3ccc(C4CCC(=O)NC4=O)cc3)CC2)CC1` (racemic) [Example 94, rac-N-{1-[2-(1-{4-[(3R)-2,6-dioxopiperidin-3-yl]phenyl}piperidin-4-yl)ethyl]piperidin-4-yl}-1-[6-(2-hydroxyphenyl)pyridazin-4-yl]-N-methyl-4-(1-methyl-1H-pyrazol-4-yl)piperidine-4-carboxamide], for which, on SMARCA2, it took 2.24 nM to reach half-maximal degradation (DC50), the maximal degradation (Dmax) was 87.3% and the “Fold Selectivity SMARCA4/2” value worked out at 4454. The same compound displayed a maximal degradation (Dmax) at SMARCA4 of 33%.
Regarding `O=C1CCC(c2ccc(OCC3CCN(C(=O)C4CCN(C(=O)C5(c6ccccc6)CCN(c6cnnc(-c7ccccc7O)c6)CC5)CC4)CC3)cc2)C(=O)N1` (racemic) [Example 14, rac-(3R)-3-(4-{[1-(1-{1-[6-(2-hydroxyphenyl)pyridazin-4-yl]-4-phenylpiperidine-4-carbonyl}piperidine-4-carbonyl)piperidin-4-yl]methoxy}phenyl)piperidine-2,6-dione], at SMARCA2, the Dmax was determined as 22.2% and the “Fold Selectivity SMARCA4/2” value is reported as 1. Besides, the greatest degradation seen (Dmax) at SMARCA4 worked out at 15.2%.
In the case of `CN(C(=O)C1(c2cc3ccccn3n2)CCN(c2cnnc(-c3ccccc3O)c2)CC1)C1CCN(CCC2CCN(c3ccc(C4CCC(=O)NC4=O)cc3)CC2)CC1` (racemic) [Example 77, rac-N-{1-[2-(1-{4-[(3R)-2,6-dioxopiperidin-3-yl]phenyl}piperidin-4-yl)ethyl]piperidin-4-yl}-1-[6-(2-hydroxyphenyl)pyridazin-4-yl]-N-methyl-4-{pyrazolo[1,5-a]pyridin-2-yl}piperidine-4-carboxamide], at SMARCA2, half-maximal degradation (DC50) was put at 4.12 nM, the Dmax came to 87% and the “Fold Selectivity SMARCA4/2” value is 2427. The compound further had a Dmax on SMARCA4 of 44.2%.
In the case of `O=C1CC[C@@H](c2ccc(N3CCN(CC4=NO[C@@H]5CN(C(=O)C6(c7ccccc7)CCN(c7cnnc(-c8ccccc8O)c7)CC6)C[C@H]45)CC3)cc2)C(=O)N1` (racemic) [Example 165, (3RS&)-3-[4-(4-{[(3aRS,6aSR)-5-{1-[6-(2-hydroxyphenyl)pyridazin-4-yl]-4-phenylpiperidine-4-carbonyl}-3aH,4H,5H,6H,6aH-pyrrolo[3,4-d][1,2]oxazol-3-yl]methyl}piperazin-1-yl)phenyl]piperidine-2,6-dione], on SMARCA2, the 50% degradation concentration (DC50) is 45.8 nM, the Dmax came out at 58% and the “Fold Selectivity SMARCA4/2” value was determined as 22. On SMARCA4, this compound showed a DC50 of 1000 nM and a maximal degradation (Dmax) of 34%.
For `O=C1CC[C@H](c2ccc(N3CCC(CN4CC(F)C5(C4)CN(C(=O)C4(c6ccccc6)CCN(c6cnnc(-c7ccccc7O)c6)CC4)C5)CC3)cc2)C(=O)N1` (stereo partly drawn) [Example 25, (3R)-3-(4-{4-[(8-fluoro-2-{1-[6-(2-hydroxyphenyl)pyridazin-4-yl]-4-phenylpiperidine-4-carbonyl}-2,6-diazaspiro[3.4]octan-6-yl)methyl]piperidin-1-yl}phenyl)piperidine-2,6-dione], on SMARCA2, half-maximal degradation (DC50) was put at 80.7 nM, the Dmax was 61.5% and the “Fold Selectivity SMARCA4/2” value amounted to 123.86. In addition, the maximal degradation (Dmax) at SMARCA4 turned out to be 29.4%.
Take `O=C1CC[C@H](c2ccc(N3CC[C@]4(C3)C[C@@H](N3CC5(CCN(C(=O)C6(c7ccccc7)CCN(c7cnnc(-c8ccccc8O)c7)CC6)CC5)C3)C4)cc2)C(=O)N1` (racemic) [Example 129, (3RS&)-3-{4-[(2rs,4sr)-2-(7-{1-[6-(2-hydroxyphenyl)pyridazin-4-yl]-4-phenylpiperidine-4-carbonyl}-2,7-diazaspiro[3.5]nonan-2-yl)-6-azaspiro[3.4]octan-6-yl]phenyl}piperidine-2,6-dione]: on SMARCA2, half-maximal degradation (DC50) was put at 20.3 nM, the greatest degradation seen (Dmax) was determined as 78.2% and the “Fold Selectivity SMARCA4/2” value was 6. At SMARCA4, this compound showed a 50% degradation concentration (DC50) of 125 nM and a maximal degradation (Dmax) of 61%.
On to `CC1(NC(=O)C2(c3ccccc3)CCN(c3cnnc(-c4ccccc4O)c3)CC2)CCN(CC2CCN(c3ccc(N[C@@H]4CCC(=O)NC4=O)cn3)CC2)CC1` (racemic) [Example 99, rac-(r)-n-(1-((1-(5-((2,6-dioxopiperidin-3-yl)amino)pyridin-2-yl)piperidin-4-yl)methyl)-4-methylpiperidin-4-yl)-1-(6-(2-hydroxyphenyl)pyridazin-4-yl)-4-phenylpiperidine-4-carboxamide], for which, at SMARCA2, the half-maximal degradation concentration (DC50) was determined as 48.1 nM, the greatest degradation seen (Dmax) was 57.3% and the “Fold Selectivity SMARCA4/2” value worked out at 208. Also, the Dmax at SMARCA4 worked out at 46.9%.
Consider `O=C1CC[C@H](c2ccc(N3CCC(CN4CC5CC(NC(=O)C6(c7ccccc7)CCN(c7cnnc(-c8ccccc8O)c7)CC6)C4C5)CC3)cc2)C(=O)N1` (stereo partly drawn) [Example 47, N-{2-[(1-{4-[(3R)-2,6-dioxopiperidin-3-yl]phenyl}piperidin-4-yl)methyl]-2-azabicyclo[2.2.1]heptan-6-yl}-1-[6-(2-hydroxyphenyl)pyridazin-4-yl]-4-phenylpiperidine-4-carboxamide], for which, on SMARCA2, the maximal degradation (Dmax) was determined as 7.19% and the “Fold Selectivity SMARCA4/2” value was 1. Moreover, the greatest degradation seen (Dmax) at SMARCA4 is 2.09%.
In the case of `O=C1CCC(c2ccc(N3CCC4(CC3)COC(CN3CC5(CCN(C(=O)C6(c7ccccc7)CCN(c7cnnc(-c8ccccc8O)c7)CC6)CC5)C3)C4)cc2)C(=O)N1` (racemic) [Example 127, rac-(3R)-3-(4-{3-[(7-{1-[6-(2-hydroxyphenyl)pyridazin-4-yl]-4-phenylpiperidine-4-carbonyl}-2,7-diazaspiro[3.5]nonan-2-yl)methyl]-2-oxa-8-azaspiro[4.5]decan-8-yl}phenyl)piperidine-2,6-dione], at SMARCA2, the DC50 came to 32 nM, the greatest degradation seen (Dmax) is 64.2% and the “Fold Selectivity SMARCA4/2” value is 312. For the same compound, the Dmax on SMARCA4 was found to be 56.1%.
